Assay results taken from ChEMBL document CHEMBL1201862, “PubChem BioAssay data set” (2004).
Activity calls are given as the source filed them.

Columns and labels:
[1] = target: T1, Serine/threonine-protein phosphatase (Homo sapiens, UniProt Q9BPW0); assay: PP5 phosphatase inhibitors, dose response, biochemical, fluorescence (AID 2395)
T1 sequence (Q9BPW0 whole entry): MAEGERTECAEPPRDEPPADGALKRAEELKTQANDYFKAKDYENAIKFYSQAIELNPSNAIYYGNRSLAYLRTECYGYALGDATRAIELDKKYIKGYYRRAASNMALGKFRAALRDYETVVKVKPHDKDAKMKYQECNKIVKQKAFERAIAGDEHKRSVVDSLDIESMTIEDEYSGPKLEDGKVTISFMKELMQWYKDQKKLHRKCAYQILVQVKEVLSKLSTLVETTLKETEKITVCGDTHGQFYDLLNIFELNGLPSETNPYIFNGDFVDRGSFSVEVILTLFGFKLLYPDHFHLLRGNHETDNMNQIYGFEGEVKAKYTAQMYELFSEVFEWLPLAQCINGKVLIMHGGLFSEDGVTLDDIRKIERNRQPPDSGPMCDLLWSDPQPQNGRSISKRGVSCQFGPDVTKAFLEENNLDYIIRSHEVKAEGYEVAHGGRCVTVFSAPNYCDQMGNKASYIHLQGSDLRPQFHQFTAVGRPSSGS

[2] = target: T2, Apoptotic protease-activating factor 1 (Homo sapiens, UniProt O14727); type: functional
T2 sequence (O14727 whole entry): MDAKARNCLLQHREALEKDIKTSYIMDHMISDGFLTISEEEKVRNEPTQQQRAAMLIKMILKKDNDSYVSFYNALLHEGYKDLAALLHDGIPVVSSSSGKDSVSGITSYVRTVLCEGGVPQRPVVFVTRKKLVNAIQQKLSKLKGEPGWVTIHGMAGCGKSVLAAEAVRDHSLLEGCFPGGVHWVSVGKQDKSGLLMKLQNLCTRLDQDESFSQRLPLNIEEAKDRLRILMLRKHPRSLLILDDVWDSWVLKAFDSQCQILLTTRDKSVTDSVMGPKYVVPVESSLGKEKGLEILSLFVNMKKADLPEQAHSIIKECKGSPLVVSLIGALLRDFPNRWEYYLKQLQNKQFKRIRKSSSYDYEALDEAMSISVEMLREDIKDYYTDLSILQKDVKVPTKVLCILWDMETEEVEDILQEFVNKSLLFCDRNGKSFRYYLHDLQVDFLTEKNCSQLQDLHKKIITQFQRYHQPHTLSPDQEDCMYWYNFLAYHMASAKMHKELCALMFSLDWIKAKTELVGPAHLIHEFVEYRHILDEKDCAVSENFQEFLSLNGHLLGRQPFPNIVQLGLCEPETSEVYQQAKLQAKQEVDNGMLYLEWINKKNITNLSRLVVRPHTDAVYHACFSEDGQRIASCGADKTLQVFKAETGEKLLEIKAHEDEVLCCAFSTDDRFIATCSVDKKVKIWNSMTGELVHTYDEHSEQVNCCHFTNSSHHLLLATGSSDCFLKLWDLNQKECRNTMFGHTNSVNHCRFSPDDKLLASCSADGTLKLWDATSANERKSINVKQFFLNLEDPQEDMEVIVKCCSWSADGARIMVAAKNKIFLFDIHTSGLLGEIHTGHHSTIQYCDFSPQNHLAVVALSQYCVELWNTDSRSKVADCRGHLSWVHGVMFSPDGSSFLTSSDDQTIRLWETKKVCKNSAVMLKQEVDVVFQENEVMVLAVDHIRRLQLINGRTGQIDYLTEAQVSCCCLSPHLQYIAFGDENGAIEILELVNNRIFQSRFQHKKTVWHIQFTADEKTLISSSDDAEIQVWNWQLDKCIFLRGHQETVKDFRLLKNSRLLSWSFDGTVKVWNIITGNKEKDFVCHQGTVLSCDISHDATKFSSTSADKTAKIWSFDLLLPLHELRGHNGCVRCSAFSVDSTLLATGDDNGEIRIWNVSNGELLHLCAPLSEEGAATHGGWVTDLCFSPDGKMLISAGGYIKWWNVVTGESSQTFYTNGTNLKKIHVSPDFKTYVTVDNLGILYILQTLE

[3] = target: Ras and Rab interactor 1/Tyrosine-protein kinase ABL1 (Homo sapiens, UniProt P00519+Q13671); type: functional;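 also: biochemical TR-FRET dose-response test measuring inhibition of binding between Rin1 and Abl proteins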
[4] = target: T3, Histone-lysine N-methyltransferase NSD2 (Homo sapiens, UniProt O96028); type: biochemical
T3 sequence (O96028 whole entry): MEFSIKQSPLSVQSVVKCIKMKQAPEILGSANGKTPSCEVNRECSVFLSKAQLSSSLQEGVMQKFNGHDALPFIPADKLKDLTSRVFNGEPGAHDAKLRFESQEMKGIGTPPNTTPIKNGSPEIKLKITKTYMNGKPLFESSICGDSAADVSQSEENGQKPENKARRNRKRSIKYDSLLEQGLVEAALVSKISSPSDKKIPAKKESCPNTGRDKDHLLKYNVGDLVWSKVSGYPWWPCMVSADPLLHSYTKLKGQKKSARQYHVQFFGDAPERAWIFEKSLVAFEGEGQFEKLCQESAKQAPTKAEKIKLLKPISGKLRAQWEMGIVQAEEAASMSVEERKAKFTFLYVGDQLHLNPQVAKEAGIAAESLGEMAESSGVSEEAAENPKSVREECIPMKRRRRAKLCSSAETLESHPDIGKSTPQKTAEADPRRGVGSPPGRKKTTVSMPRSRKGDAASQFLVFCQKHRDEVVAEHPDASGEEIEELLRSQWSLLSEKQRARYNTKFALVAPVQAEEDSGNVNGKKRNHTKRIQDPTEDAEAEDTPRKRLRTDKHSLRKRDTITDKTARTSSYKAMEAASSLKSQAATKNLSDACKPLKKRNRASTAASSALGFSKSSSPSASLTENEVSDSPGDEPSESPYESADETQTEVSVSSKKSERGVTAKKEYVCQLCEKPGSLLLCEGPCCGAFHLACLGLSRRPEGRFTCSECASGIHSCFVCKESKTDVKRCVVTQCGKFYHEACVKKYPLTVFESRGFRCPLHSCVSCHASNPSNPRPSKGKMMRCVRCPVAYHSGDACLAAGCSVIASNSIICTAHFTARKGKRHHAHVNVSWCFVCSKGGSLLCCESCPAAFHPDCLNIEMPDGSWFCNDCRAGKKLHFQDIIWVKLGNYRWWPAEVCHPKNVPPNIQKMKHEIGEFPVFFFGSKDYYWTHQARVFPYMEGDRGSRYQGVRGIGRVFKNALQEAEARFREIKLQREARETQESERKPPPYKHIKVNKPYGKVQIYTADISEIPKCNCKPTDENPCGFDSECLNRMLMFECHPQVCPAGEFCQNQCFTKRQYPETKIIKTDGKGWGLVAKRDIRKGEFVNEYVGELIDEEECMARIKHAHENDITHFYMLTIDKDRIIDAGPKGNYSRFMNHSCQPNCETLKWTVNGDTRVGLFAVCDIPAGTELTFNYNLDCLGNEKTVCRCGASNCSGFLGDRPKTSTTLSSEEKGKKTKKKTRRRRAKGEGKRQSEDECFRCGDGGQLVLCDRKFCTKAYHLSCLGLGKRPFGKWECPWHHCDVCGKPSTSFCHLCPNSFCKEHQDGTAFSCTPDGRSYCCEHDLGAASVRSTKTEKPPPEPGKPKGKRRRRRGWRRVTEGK

[5] = target: Serine/threonine-protein phosphatase PP1-alpha catalytic subunit (Homo sapiens, UniProt P62136); assay: PP1 phosphatase inhibitors, dose response, biochemical, fluorescence (AID 2394)
[6] = target: T4, Tyrosyl-DNA phosphodiesterase 2 (Homo sapiens, UniProt O95551); assay: human TDP2 enzyme inhibitors, dose response, biochemical, epi absorbance, IC50 (AID 743297)
T4 sequence (O95551 whole entry): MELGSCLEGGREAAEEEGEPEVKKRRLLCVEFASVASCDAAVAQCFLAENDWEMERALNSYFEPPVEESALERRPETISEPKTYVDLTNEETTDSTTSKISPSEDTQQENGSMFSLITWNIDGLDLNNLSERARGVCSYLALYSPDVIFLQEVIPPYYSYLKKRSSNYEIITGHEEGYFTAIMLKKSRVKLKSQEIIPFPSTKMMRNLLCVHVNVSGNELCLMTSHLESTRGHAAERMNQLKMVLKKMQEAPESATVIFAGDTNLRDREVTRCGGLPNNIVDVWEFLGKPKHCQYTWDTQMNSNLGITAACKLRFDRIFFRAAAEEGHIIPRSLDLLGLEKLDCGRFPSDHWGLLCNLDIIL

[7] = target: T5, Fatty acid synthase (Homo sapiens, UniProt P49327); assay: FAS thioesterase domain inhibitors, dose response, biochemical, endpoint fluorescence intensity, uHTS hits (AID 624327); type: functional;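 also: fluorescence from hydrolysis of an O-methyl fluorescein acyl ester substrate by the enzyme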
[8] = Late stage counterscreen results from the probe development effort to identify activators of signal transducer and activator of transcription 1 (STAT1): luminescence-based cell-based dose response assay to identify cytotoxic compounds.; type: functional
[9] = target: T5, Fatty acid synthase; assay: FAS thioesterase domain inhibitors, dose response, biochemical, kinetic fluorescence intensity (AID 624326); type: functional;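 also: rate of fluorescence rise from hydrolysis of a fluorogenic O-methyl fluorescein ester substrate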
[10] = target: Procathepsin L (Homo sapiens, UniProt P07711); assay: cathepsin L inhibitors, dose response, counter-screen for M1/M17 aminopeptidase inhibitor project, biochemical, QFRET, 1536-well (AID 2214)
[11] = target: T6, Aspartyl aminopeptidase (Plasmodium falciparum 3D7, UniProt Q8I2J3); assay: Counterscreen for inhibitors of M1 and M17 aminopeptidases: QFRET-based biochemical high throughput dose response assay for inhibitors of the Plasmodium falciparum M18 Aspartyl Aminopeptidase (PFM18AAP). [Related PubChem assays: 1619 (Screening assay (M17LAP inhibitors).), 1445 (Screening assay (M1AAP inhibitors).)]
T6 sequence (Q8I2J3 whole entry): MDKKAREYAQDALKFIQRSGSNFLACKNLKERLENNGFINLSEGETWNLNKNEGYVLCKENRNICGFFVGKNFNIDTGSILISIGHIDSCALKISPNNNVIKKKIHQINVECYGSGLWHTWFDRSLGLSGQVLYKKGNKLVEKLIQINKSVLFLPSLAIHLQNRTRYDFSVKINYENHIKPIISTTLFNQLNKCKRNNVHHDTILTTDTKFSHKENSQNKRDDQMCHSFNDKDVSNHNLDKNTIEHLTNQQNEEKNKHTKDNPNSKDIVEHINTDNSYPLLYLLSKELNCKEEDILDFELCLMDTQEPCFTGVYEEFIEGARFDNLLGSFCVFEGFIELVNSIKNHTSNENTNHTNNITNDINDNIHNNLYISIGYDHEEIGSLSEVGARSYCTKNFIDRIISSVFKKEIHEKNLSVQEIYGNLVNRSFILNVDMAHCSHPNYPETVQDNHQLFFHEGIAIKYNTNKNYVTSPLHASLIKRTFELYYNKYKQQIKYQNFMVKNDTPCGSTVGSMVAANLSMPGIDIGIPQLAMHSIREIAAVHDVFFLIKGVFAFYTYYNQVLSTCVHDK

[12] = target: T7, Leucine aminopeptidase (Plasmodium falciparum 3D7, UniProt Q8IL11); assay: P. falciparum M17LAP inhibitors, primary screen, biochemical, fluorogenic H-Leu-NHMec substrate, 1536-well (AID 1619); type: functional
T7 sequence (Q8IL11 whole entry): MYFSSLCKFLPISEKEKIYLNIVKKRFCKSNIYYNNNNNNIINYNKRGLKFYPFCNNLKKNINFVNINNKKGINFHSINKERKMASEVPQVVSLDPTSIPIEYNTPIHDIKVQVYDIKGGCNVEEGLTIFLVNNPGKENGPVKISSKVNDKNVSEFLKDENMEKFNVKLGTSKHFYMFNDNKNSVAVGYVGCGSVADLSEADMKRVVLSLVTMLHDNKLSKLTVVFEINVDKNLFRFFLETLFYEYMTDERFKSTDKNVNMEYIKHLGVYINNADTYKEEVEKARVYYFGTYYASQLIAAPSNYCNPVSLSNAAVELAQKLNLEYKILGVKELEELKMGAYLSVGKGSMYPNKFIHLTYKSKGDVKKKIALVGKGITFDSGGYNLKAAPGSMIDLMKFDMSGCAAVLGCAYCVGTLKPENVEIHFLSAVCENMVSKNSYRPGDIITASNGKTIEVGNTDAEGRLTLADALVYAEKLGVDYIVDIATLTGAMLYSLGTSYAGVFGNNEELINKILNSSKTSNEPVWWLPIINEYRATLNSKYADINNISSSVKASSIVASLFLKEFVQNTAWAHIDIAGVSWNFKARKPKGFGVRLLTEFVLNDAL

[13] = target: Cytochrome P450 3A4 (Homo sapiens, UniProt P08684);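 also: CYP3A4 tested as one member of a cytochrome P450 panel screen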
[14] = target: Cytochrome P450 2C19 (Homo sapiens, UniProt P33261); assay: Cytochrome panel assay with activity outcomes. Panel member name: p450-cyp2c19 Compounds with AC50 equal or less than 10 uM are considered active; type: functional; conditions: read-out: AC50

T5 sequence (P49327 whole entry, the tested form may be a part): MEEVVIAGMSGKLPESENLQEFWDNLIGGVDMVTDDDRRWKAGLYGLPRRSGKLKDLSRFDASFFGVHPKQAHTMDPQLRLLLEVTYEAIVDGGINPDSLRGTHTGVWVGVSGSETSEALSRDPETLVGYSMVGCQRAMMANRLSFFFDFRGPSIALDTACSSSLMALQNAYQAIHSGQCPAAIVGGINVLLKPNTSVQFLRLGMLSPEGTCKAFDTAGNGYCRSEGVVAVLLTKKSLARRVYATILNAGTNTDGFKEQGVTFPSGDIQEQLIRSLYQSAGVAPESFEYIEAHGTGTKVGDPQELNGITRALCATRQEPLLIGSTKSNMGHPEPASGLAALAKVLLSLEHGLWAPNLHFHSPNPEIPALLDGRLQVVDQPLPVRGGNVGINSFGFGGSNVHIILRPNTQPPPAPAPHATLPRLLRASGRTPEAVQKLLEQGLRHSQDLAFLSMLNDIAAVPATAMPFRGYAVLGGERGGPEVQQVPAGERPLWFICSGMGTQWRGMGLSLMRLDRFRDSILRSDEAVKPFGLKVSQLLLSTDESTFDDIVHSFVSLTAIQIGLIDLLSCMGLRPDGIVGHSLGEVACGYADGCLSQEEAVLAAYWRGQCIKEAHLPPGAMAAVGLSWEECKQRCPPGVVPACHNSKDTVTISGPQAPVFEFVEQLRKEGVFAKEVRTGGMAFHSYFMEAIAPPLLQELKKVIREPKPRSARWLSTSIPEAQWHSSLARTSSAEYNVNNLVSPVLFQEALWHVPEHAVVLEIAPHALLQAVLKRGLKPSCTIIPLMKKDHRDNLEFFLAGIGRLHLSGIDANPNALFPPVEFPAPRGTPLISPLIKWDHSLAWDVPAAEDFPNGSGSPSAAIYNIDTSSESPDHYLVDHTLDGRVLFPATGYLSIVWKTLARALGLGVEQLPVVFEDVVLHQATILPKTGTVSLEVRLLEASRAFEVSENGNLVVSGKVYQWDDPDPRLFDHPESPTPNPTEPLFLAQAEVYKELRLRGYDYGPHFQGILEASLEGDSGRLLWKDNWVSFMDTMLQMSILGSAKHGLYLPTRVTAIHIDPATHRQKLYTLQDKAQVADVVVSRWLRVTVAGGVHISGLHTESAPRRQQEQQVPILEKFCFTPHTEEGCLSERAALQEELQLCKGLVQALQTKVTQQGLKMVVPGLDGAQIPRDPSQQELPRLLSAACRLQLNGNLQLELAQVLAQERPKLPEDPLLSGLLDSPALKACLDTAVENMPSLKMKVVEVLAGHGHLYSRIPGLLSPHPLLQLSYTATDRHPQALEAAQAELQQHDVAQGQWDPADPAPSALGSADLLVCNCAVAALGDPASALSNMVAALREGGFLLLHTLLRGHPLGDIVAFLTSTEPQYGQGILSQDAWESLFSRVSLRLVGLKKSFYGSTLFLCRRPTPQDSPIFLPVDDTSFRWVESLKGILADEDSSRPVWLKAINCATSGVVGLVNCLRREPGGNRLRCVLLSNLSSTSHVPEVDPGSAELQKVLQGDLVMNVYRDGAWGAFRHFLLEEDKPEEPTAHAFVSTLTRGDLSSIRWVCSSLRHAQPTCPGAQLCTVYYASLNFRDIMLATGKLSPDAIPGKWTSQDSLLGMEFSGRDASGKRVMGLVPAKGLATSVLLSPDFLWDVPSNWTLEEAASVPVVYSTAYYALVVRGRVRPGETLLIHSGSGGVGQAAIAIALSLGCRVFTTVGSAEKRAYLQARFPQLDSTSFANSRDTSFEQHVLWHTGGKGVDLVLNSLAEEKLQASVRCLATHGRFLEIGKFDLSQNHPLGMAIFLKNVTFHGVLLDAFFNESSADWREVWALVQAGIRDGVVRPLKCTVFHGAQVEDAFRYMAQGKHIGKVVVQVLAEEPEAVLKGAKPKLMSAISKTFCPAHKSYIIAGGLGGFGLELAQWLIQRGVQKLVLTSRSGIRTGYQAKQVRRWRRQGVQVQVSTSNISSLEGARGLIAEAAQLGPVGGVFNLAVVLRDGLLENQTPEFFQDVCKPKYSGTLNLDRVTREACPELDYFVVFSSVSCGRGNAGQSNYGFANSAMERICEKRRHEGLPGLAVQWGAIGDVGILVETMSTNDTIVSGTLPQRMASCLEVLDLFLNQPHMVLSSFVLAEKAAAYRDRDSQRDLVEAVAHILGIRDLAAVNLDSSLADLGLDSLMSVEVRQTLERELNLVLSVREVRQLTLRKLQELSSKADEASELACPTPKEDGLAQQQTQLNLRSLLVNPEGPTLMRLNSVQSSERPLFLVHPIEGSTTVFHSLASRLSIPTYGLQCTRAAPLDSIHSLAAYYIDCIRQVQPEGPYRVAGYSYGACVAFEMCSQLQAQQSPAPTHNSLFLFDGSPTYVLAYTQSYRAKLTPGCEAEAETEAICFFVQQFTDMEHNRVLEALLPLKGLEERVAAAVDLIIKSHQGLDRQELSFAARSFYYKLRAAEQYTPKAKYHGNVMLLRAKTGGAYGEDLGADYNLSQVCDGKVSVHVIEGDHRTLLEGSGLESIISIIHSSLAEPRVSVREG
Procathepsin L, sequence (P07711 whole entry): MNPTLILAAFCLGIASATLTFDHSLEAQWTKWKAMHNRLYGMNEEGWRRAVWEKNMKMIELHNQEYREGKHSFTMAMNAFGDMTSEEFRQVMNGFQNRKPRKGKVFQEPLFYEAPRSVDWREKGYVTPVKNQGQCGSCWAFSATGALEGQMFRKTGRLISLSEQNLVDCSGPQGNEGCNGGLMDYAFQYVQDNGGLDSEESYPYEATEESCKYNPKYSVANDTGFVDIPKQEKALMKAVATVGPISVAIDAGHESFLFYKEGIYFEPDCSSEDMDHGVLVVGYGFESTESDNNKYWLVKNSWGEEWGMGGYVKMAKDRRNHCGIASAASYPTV
Ras and Rab interactor 1/Tyrosine-protein kinase ABL1, sequence (P00519 whole entry): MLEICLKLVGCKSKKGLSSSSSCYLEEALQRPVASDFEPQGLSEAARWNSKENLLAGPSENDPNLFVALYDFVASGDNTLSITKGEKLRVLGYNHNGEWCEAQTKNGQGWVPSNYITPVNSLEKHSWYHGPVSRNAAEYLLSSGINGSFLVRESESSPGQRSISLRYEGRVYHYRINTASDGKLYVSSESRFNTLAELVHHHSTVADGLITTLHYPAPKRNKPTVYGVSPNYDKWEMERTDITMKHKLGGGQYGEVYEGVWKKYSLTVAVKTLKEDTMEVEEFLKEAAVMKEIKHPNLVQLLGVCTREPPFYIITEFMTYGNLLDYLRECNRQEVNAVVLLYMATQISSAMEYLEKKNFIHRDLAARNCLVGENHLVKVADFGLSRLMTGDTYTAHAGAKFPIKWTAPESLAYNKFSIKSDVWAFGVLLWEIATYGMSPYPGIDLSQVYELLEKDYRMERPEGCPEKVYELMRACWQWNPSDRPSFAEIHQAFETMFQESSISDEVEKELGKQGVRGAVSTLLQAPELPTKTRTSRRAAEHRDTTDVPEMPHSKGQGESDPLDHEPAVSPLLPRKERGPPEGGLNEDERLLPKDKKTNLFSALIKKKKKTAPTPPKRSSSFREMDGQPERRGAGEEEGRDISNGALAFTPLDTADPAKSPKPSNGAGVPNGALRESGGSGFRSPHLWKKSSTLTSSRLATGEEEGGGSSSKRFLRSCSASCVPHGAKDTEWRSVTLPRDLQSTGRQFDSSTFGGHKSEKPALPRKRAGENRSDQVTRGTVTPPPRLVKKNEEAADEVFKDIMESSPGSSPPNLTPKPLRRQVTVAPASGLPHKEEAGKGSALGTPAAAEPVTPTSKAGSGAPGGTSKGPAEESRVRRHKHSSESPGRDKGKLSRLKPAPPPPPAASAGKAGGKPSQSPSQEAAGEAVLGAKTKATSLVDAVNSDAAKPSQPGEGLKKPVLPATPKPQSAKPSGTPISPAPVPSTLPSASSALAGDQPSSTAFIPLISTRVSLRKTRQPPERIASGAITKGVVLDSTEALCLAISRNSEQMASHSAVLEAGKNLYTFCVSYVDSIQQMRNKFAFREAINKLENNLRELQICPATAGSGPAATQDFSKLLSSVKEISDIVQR
Ras and Rab interactor 1/Tyrosine-protein kinase ABL1, sequence (Q13671 whole entry): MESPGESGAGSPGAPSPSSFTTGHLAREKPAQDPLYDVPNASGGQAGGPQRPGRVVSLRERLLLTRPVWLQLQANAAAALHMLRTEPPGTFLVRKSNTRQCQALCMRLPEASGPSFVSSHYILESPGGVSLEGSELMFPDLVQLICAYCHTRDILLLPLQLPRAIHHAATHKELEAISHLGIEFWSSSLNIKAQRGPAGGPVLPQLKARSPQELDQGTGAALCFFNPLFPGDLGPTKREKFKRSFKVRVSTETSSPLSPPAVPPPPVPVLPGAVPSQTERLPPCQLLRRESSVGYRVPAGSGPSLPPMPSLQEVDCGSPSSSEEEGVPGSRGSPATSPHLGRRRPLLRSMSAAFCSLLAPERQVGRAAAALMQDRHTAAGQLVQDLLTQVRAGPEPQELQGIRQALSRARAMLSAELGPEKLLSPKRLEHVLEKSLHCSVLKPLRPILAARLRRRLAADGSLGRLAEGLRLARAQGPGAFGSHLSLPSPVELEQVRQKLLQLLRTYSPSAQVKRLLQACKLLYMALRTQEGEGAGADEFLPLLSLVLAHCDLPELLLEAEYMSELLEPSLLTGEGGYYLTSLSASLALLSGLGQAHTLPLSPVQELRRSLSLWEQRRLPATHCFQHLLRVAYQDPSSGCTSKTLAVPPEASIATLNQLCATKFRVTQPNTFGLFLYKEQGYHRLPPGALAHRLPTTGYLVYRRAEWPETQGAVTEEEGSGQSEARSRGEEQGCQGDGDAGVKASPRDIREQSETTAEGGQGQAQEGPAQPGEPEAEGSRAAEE
Serine/threonine-protein phosphatase PP1-alpha catalytic subunit, sequence (P62136 whole entry): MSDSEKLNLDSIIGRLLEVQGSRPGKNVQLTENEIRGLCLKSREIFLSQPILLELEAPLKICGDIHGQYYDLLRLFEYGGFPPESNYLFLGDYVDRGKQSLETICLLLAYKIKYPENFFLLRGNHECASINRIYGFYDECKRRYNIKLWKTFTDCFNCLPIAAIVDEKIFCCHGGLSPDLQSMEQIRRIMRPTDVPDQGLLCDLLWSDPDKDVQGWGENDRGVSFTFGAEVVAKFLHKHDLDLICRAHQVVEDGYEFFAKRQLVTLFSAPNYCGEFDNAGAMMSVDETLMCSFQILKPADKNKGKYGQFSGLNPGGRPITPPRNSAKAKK

**Q.** Which IC50 [1] does the source give for `CC(=O)C(C(C)=O)C1(O)C(=O)c2ccccc2C1=O` here?
**A.** The IC50 was > 22.3 µM (not active).

**Q.** What about the IC50 [2] of the same compound?
**A.** The IC50 was 9.72 µM (active).

**Q.** And the IC50 [3]?
**A.** Its IC50 is > 73.5 µM (inactive).

**Q.** And the AC50 [4]?
**A.** Its AC50 is 5.35 µM (active).

**Q.** And the IC50 [5]?
**A.** Its IC50 is > 67 µM (not active).

**Q.** What about the IC50 [6] of the same compound?
**A.** The IC50 was 9.1 µM (active).

**Q.** Which IC50 [7] does the source give for `CC(=O)NC(=S)Nc1sc2c(c1C#N)CCCCC2` here?
**A.** Its IC50 is 12.3 µM (active).

**Q.** What about the IC50 [8] of the same compound?
**A.** The IC50 was > 55.7 µM (not active).

**Q.** And the IC50 [9]?
**A.** Its IC50 is 13.6 µM (active).

**Q.** For `Cc1ccc(-c2c(C)sc(NC(=O)C3C4CCC(O4)C3C(=O)O)c2C(=O)OC(C)C)cc1` (configuration not stated), which IC50 [10] is on record?
**A.** The IC50 was > 59.6 µM (not active).

**Q.** What about the IC50 [11] of the same compound?
**A.** Its IC50 is > 73.5 µM (not active).

**Q.** And the IC50 [12]?
**A.** Its IC50 is 7.67 µM (active).

**Q.** And the AC50 [13]?
**A.** The AC50 was 14.1 µM (inconclusive).

**Q.** And the AC50 [14]?
**A.** Its AC50 is 28.2 µM (inconclusive).

**Q.** Which results are given for `O=C(O)Cc1ccc(NC(=O)Nc2cccc(Cl)c2)cc1`?
**A.** IC50 [10]: > 59.6 µM (not active); IC50 [11]: > 73.5 µM (not active); IC50 [12]: 1.7 µM (active)
